Measurements reported in patent US20060188909A1, “Business methods for assessing nucleic acids” (Medical College of Ohio, priority 2005, published 2006).

What was measured:
[1] = test system: cytochrome p450 IA1 (CYPIAI) gene expression; assay: Northern analysis of CYPIAI induction in BEP2D cells; type: cell-based, human; conditions: 10 μM, varying times, vs 0.1% DMSO control
Procedure: (§1) In a second set of experiments, multiplex competitive reverse transcriptase polymerase chain reaction (MC RT-PCR) with competitive templates were prepared by the Celi method to evaluate the cytochrome p450 (CYP) IAI gene in β-napthoflavone-exposed BEP2D cells. The induction of CYPIAI gene expression was evaluated using both MC RT-PCR with Celi competitive templates, and Northern analysis. Competitive templates were prepared for both the CYPIAI and GAPDH genes. The primers used to prepare the competitive template for GAPDH were: […]
RNA from BEP2D cells incubated for varying times with […] (10 μM) was either electrophoresed on a 1% LE formaldehyde denaturing gel for Northern analysis or MC RT-PCR amplified, as described above. For Northern analysis, following transfer of the RNA to GeneScreen, the filters were hybridized with ^32P-labeled CYPIAI cDNA.
FIG. 36A illustrates Northern analysis of RNA obtained from BEP2D cells that were treated with 0.1% DMSO as a control, or, β-napthoflavone in an effort to induce cytochrome p450 IA1 (CYPIAI). FIG. 36B illustrates DNA PCR-amplified from serial dilutions of cDNA from the same cells used in FIG. 36SA. The cDNA was co-amplified in the presence of competitive templates for GAPDH and CYPIAI, according to some embodiments of the instant invention.

[2] = test system: cytochrome p450 IA1 (CYPIAI) gene expression; assay: MC RT-PCR with Celi competitive templates, CYPIAI induction in BEP2D cells; type: cell-based, human; conditions: 10 μM, exposed vs control cells, about the same cDNA loaded
Procedure: as §1
The PCR amplification conditions were the same as described for experiments using the competitive templates prepared for GAPDH and GSHPx by the Higuchi method except the annealing temperature was 55 degrees centigrade and the amplification was carried out for 38 cycles.
Because the native and competitive templates separate without prior restriction endonuclease digestion, samples were taken directly from the PCR reaction tube and applied to ethidium bromide stained 3% Nusieve, 1% LE agarose gels. It was then possible to quantify the products by taking a negative photograph of the gel using Polaroid 665 positive/negative instant film, subjecting the negative photograph to densitometry. […]

- gene expression of the CYPIAI gene (Northern analysis) [1]: increase
- band representing the native CYPIAI gene (MC RT-PCR, GAPDH reference) [2]: much more strongly represented
SMILES: O=c1cc(-c2ccccc2)oc2ccc3ccccc3c12 [β-napthoflavone]
